# Results reported in ChEMBL document CHEMBL5029183 (J Med Chem, 2021).
# Activity calls are given as the source filed them.
# Key:
# Mus musculus [1] = organism: Mus musculus; test: Antinociceptive tolerance in Kunming mouse pretreated with saline for 2 hrs followed by compound addition by radiant heat paw withdrawal test; format: functional
# [2] = Toxicity in icv dosed Kunming mouse assessed as inhibition of gastrointestinal transit by measuring charcoal distance travel by charcoal meal test; format: organism-based; details: in vivo, icv_or_intrathecal, dose 0.67-6.7 nmol
# Mus musculus [3] = test: Antinociceptive activity in Kunming mouse model assessed as increase in paw withdrawal latency at 20 nmol, icv pretreated for 30 mins with nor-BNI followed by compound addition and measured upto 10 mins by radiant heat paw withdrawal assay; format: functional, organism-based; details: time min <=10
# [4] = Toxicity in Kunming mouse model assessed as conditioned place preference time at 20 nmol, icv; details: in vivo, icv_or_intrathecal
# [5] = Toxicity in Kunming mouse assessed as inhibition of gastrointestinal transit at 10 micromol/kg, sc by charcoal meal test (reference value: 70.3 +/- 3 %); format: organism-based; set-up: scale not given: the % may be the effect or the level left; details: in vivo
# Mus musculus [6] = test: Chronic antinociceptive tolerance in Kunming mouse pretreated with compound followed by repeated compound addition at 20 nmol, icv once daily for 7 days and measured after 5 mins by radiant heat paw withdrawal test; format: functional, organism-based; details: time 7.0 day
# Vas deferens = test: Inhibition of electric-field induced mouse vas deferens contraction; format: functional, tissue-based
# [7] = Metabolic stability in Kunming mouse serum assessed as half life measured upto 480 mins by RP-HPLC analysis; format: ADME, cell-free
# Mus musculus [8] = test: Antinociceptive activity in icv dosed Kunming mouse model assessed as increase in paw withdrawal latency by radiant heat paw withdrawal assay; format: functional; details: dose 0.67-20 nmol
# [9] = Metabolic stability in Kunming mouse brain assessed as half life measured upto 480 mins by RP-HPLC analysis; format: ADME, tissue-based
# Mus musculus [10] = test: Antinociceptive activity in Kunming mouse model assessed as increase in paw withdrawal latency at 20 nmol, icv pretreated for 20 mins with naloxonazine followed by compound addition and measured upto 10 mins by radiant heat paw withdrawal assay; format: functional, organism-based; details: time min <=10
# Mus musculus [11] = organism: Mus musculus; test: Antinociceptive tolerance in Kunming mouse pretreated with 3 times ED50 of compound for 2 hrs followed by challenge with second dose of compound by radiant heat paw withdrawal test; format: functional
# Mus musculus [12] = test: Antinociceptive activity in Kunming mouse model assessed as increase in paw withdrawal latency at 20 nmol, icv pretreated for 10 mins with naloxone followed by compound addition and measured upto 10 mins by radiant heat paw withdrawal assay; format: functional, organism-based; details: time min <=10
# Mus musculus [13] = test: Antinociceptive activity in Kunming mouse model assessed as increase in paw withdrawal latency at 10 micromol/kg, sc by radiant heat paw withdrawal assay; format: functional, organism-based; details: dose 10.0 µmol/kg
# Mus musculus [14] = test: Antinociceptive activity in Kunming mouse model assessed as increase in paw withdrawal latency at 20 nmol, icv pretreated for 4 hrs with beta-FNA followed by compound addition and measured upto 10 mins by radiant heat paw withdrawal assay; format: functional, organism-based; details: time min <=10
# Mus musculus [15] = test: Antinociceptive activity in Kunming mouse model assessed as increase in paw withdrawal latency at 0.67 to 20 nmol, icv by radiant heat paw withdrawal assay; format: functional, organism-based; details: dose 0.67-20 nmol, TDE = time-dependent effect
# Mus musculus [16] = test: Antinociceptive activity in Kunming mouse model assessed as increase in paw withdrawal latency at 0.67 to 20 nmol, icv measured after 5 mins by radiant heat paw withdrawal assay; format: functional, organism-based; details: dose 0.67-20 nmol
# [17] = Toxicity in Kunming mouse model assessed as conditioned place preference time at 10 micromol/kg, sc; details: in vivo, dose 10 µmol/kg
# Mus musculus [18] = test: Antinociceptive activity in Kunming mouse model assessed as increase in paw withdrawal latency at 0.67 to 20 nmol, icv measured after 20 mins by radiant heat paw withdrawal assay; format: functional, organism-based; details: dose 0.67-20 nmol
# Ileum = test: Inhibition of electric-field induced guinea pig ileum contraction; format: functional, tissue-based; details: Cavia porcellus
# Rattus norvegicus [19] = organism: Rattus norvegicus; test: Selectivity index, ratio of Ki for displacement of [3H]DPDPE from DOR in Wistar rat brain membranes to Ki for displacement of [3H]DAMGO from MOR in Wistar rat brain membranes; format: cell membranes
# [20] = molecular target: Kappa-type opioid receptor (Homo sapiens) (UniProt P41145); test: Agonist activity at kappa-opioid receptor (unknown origin) expressed in HEK293 cells assessed as inhibition of forskolin-induced cAMP accumulation incubated for 15 mins by ELISA; format: functional, cell-based
# Sequence of Kappa-type opioid receptor (Homo sapiens) (P41145 whole entry): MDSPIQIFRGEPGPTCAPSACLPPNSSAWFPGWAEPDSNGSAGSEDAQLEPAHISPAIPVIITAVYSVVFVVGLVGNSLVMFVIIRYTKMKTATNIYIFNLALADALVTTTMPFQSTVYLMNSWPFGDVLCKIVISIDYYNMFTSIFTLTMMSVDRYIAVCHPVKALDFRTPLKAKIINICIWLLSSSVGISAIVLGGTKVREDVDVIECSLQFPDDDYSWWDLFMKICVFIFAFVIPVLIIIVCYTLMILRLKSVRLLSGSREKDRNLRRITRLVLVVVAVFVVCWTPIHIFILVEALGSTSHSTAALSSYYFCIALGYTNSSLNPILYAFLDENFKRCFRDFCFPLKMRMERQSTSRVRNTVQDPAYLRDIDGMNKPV
# Mu-type opioid receptor [21] = molecular target: T1, Mu-type opioid receptor (Homo sapiens, UniProt P35372); test: Agonist activity at mu-opioid receptor (unknown origin) expressed in HEK293 cells assessed as inhibition of forskolin-induced cAMP accumulation incubated for 15 mins by ELISA relative to control; format: functional, cell-based; details: filed as agonist
# T1 sequence (P35372 whole entry): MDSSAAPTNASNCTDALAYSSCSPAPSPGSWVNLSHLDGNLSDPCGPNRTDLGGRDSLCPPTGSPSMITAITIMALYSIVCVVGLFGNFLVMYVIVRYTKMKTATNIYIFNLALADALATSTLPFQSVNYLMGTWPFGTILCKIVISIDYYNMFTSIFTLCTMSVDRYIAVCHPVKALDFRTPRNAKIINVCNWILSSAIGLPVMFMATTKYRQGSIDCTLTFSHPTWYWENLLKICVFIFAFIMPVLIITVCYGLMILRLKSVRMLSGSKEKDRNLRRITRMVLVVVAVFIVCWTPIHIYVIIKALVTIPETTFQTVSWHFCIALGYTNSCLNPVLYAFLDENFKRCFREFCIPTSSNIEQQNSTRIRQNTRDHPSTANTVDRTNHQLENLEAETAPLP
# Rattus norvegicus [22] = organism: Rattus norvegicus; test: Selectivity index, ratio of Ki for displacement of [3H]-U69593 from KOR in Wistar rat brain membranes to Ki for displacement of [3H]DAMGO from MOR in Wistar rat brain membranes; format: cell membranes
# Mu-type opioid receptor [23] = molecular target: T1, Mu-type opioid receptor; test: Agonist activity at mu-opioid receptor (unknown origin) expressed in HEK293 cells assessed as inhibition of forskolin-induced cAMP accumulation incubated for 15 mins by ELISA; format: functional, cell-based
# Mu-type opioid receptor [24] = molecular target: Mu-type opioid receptor (Rattus norvegicus, UniProt P33535); test: Displacement of [3H]DAMGO from MOR in Wistar rat brain membranes measured after 1 hr by scintillation counting method; format: cell membranes, Membrane
# Sequence of Mu-type opioid receptor (Rattus norvegicus, UniProt P33535) (P33535 whole entry): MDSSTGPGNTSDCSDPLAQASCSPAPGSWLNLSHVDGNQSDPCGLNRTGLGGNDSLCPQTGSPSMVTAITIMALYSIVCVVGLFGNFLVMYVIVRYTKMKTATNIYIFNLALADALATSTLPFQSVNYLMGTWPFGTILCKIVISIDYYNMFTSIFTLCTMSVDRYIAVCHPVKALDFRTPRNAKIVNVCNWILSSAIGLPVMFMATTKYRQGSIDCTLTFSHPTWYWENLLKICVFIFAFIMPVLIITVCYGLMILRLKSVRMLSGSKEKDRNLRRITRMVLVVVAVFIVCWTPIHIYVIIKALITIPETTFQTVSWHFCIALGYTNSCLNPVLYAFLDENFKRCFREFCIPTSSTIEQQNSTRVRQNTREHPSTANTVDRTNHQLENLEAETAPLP
# [25] = molecular target: Delta-type opioid receptor (Rattus norvegicus, UniProt P33533); test: Displacement of [3H]DPDPE from DOR in Wistar rat brain membranes measured after 3 hrs by scintillation counting method; format: cell membranes, Membrane
# Sequence of Delta-type opioid receptor (P33533 whole entry): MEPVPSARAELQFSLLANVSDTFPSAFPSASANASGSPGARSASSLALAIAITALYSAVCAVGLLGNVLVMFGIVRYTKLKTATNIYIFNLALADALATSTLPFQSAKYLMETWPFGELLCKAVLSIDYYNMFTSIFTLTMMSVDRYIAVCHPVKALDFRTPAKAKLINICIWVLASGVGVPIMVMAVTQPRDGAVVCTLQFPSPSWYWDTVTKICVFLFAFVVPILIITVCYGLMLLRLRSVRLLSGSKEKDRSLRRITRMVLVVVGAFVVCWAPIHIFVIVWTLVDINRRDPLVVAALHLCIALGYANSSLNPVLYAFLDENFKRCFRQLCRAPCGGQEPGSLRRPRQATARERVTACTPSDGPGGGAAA
# [26] = molecular target: Delta-type opioid receptor (Homo sapiens) (UniProt P41143); test: Agonist activity at delta-opioid receptor (unknown origin) expressed in HEK293 cells assessed as inhibition of forskolin-induced cAMP accumulation incubated for 15 mins by ELISA; format: functional, cell-based
# Sequence of Delta-type opioid receptor (Homo sapiens) (P41143 whole entry): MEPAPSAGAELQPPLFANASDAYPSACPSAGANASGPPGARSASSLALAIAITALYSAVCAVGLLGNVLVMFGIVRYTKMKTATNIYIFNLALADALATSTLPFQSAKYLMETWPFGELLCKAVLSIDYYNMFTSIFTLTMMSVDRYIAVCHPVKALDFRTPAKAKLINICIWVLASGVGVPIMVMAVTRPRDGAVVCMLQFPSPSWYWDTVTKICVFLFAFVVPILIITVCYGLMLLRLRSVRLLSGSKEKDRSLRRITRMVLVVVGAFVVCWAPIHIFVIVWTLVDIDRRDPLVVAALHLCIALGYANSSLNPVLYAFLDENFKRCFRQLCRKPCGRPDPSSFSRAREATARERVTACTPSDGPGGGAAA
# [27] = Toxicity in Kunming mouse assessed as effect on motor coordination at 20 nmol, icv by rotarod test; details: in vivo, icv_or_intrathecal
# Mus musculus [28] = test: Antinociceptive activity in Kunming mouse model assessed as maximum possible effect at 10 micromol/kg, sc by radiant heat paw withdrawal assay; format: functional; details: dose 10 µmol/kg
# Mus musculus [29] = test: Chronic antinociceptive tolerance in Kunming mouse pretreated with compound followed by repeated compound addition at 10 micromol/kg, sc once daily for 7 days and measured after 20 mins by radiant heat paw withdrawal test; format: functional, organism-based; details: dose 10.0 µmol/kg, time 7.0 day
# Mus musculus [30] = test: Chronic antinociceptive tolerance in Kunming mouse pretreated with compound followed by repeated compound addition at 20 nmol, icv once daily for 7 days and measured after 15 mins by radiant heat paw withdrawal test; format: functional, organism-based; details: time 7.0 day
# [31] = Toxicity in Kunming mouse assessed as effect on motor coordination at 10 micromol/kg, sc by rotarod test; format: organism-based; details: in vivo, dose 10 µmol/kg
# Mus musculus [32] = test: Antiallodynic activity in Kunming mouse model of spared nerve injury-induced neuropathic pain assessed as increase in paw withdrawal threshold at 10 micromol/kg, sc measured at 20 to 50 mins by von Frey test; format: functional, organism-based; details: dose 10.0 µmol/kg, time 20-50 min
SMILES,Activity [2],Time [4] [s],IC50 (Vas deferens) [nM],half-life [7] [h],half-life [9] [h],Time [17] [s],IC50 (Ileum) [nM],Ratio Ki (Rattus norvegicus [19]),Activity [20],Emax (Mu-type opioid receptor [21]) [%],Ratio Ki (Rattus norvegicus [22]),EC50 (Mu-type opioid receptor [23]) [nM],Ki (Mu-type opioid receptor [24]) [nM],Ki [25] [nM],Activity [26],other results
NC(=O)[C@H](Cc1ccccc1)NC(=O)[C@H](Cc1ccccc1)NC(=O)[C@@H]1CCCN1C(=O)[C@@H](N)Cc1ccc(O)cc1 [ENDOMORPHIN 2],Dose-Dependent Effect,449,42.9,0.148,0.258,445,11.3,,,,,,,,,ED50 (Mus musculus [1]): 6.4 nmol; Activity (Mus musculus [3]): inactive; Activity ([5]; at 10 µmol/kg): 68.8%; Activity (Mus musculus [6]): Active; Activity (Mus musculus [8]): Dose-Dependent Effect; ED50 (Mus musculus [8]): 6.4 nmol; Activity (Mus musculus [10]): inactive; ED50 (Mus musculus [11]): 20.6 nmol; Activity (Mus musculus [12]): inactive; Activity (Mus musculus [13]): inactive; Activity (Mus musculus [14]): inactive; Activity (Mus musculus [15]): Tde; Activity (Mus musculus [16]): inactive; Activity (Mus musculus [18]): inactive
N=C(N)NCCC[C@@H](NC(=O)[C@@H](CCCNC(=N)N)NC(=O)CNC(=O)[C@@H]1CSSC[C@H](NC(=O)[C@@H](N)Cc2ccc(O)cc2)C(=O)N[C@@H](Cc2c[nH]c3ccccc23)C(=O)N[C@@H](Cc2ccc(Cl)cc2)C(=O)N1)C(=O)O,,,138,4.57,5.8,,97.4,> 145,inactive,80.6,> 145,189,68.9,> 10000,inactive,
N=C(N)NCCC[C@@H](NC(=O)[C@@H](CCCNC(=N)N)NC(=O)CNC(=O)[C@@H]1CSSC[C@H](NC(=O)[C@@H](N)Cc2ccc(O)cc2)C(=O)N[C@@H](Cc2ccccc2)C(=O)N[C@@H](Cc2ccc(Cl)cc2)C(=O)N1)C(=O)O,,,139,4.47,5.85,,102,> 149,inactive,79.6,> 149,202,67.2,> 10000,inactive,
N=C(N)NCCC[C@@H](NC(=O)[C@@H](CCCNC(=N)N)NC(=O)CNC(=O)[C@@H]1CSSC[C@H](NC(=O)[C@@H](N)Cc2ccc(O)cc2)C(=O)N[C@@H](Cc2ccccc2)C(=O)N[C@@H](Cc2ccccc2)C(=O)N1)C(=O)O,,,108,3.6,4.12,,74.6,221,inactive,79.7,> 221,154,45.3,> 10000,inactive,
NC(=O)[C@H](Cc1ccccc1)NC(=O)[C@H](Cc1c[nH]c2ccccc12)NC(=O)[C@@H]1CCCN1C(=O)[C@@H](N)Cc1ccc(O)cc1 [ENDOMORPHIN-1],Dose-Dependent Effect,455,50.1,,,451,8.73,,,,,,,,,Activity (Mus musculus [3]): Active; Activity ([5]; at 10 µmol/kg): 68.1%; Activity (Mus musculus [6]): Active; Activity (Mus musculus [8]): Dose-Dependent Effect; Activity (Mus musculus [10]): Active; Activity (Mus musculus [12]): inactive; Activity (Mus musculus [13]): inactive; Activity (Mus musculus [14]): inactive; Activity (Mus musculus [15]): Tde; Activity (Mus musculus [16]): inactive; Activity (Mus musculus [18]): inactive
N=C(N)NCCC[C@@H](NC(=O)[C@@H](CCCNC(=N)N)NC(=O)CNC(=O)[C@@H]1CSSC[C@H](NC(=O)[C@@H](N)Cc2ccc(O)cc2)C(=O)N[C@@H](Cc2c[nH]c3ccccc23)C(=O)N[C@@H](Cc2ccccc2)C(=O)N1)C(=O)O,,,97.5,3.28,4.23,,70.2,249,inactive,77.2,> 249,160,40.1,> 10000,inactive,
CN1CC[C@]23c4c5ccc(O)c4O[C@H]2[C@@H](O)C=C[C@H]3[C@H]1C5 [MORPHINE],Dose-Dependent Effect,451,,,,447,,,,,,,,,,Activity [27]: Toxic; Activity ([5]; dose 10 µmol/kg): Toxic; MPE (Mus musculus [28]): 41.05%; Activity (Mus musculus [29]): Active; Activity (Mus musculus [30]): Active; Activity [31]: Toxic; Activity (Mus musculus [32]): Active
